Assays:
[1] = system: chronic myelogenous leukemia; details: cited from earlier work; for bone marrow cells with the translocation: marrow of treated patients
[2] = pH 1, 37 degrees C.; cited from earlier work
[3] = system: DHL9, Increased ribonucleotide reduction; experiment: cells; details: Homo sapiens, 120 h, read-out: ID50
Text: (§4) ^1 Concentration that produced 50 percent reduction in all numbers

Monocytes [4] = experiment: cells; details: Homo sapiens, Monocyte, 120 h, read-out: ID50
Text: as §4

K562 (myeloid cell line) = experiment: cells; details: Homo sapiens
Experimental: (§5) Seven different cell lines were treated with varying concentrations of 2-chloro-9,1'-beta-2'-deoxy-2'-fluoro-D-arabinofuranosyladenine (CAFdA) to determine percent viability. CAFdA concentrations ranging from 0 to about 260 nM were used to treat each cell line in vitro.

[5] = system: CEM, Increased 5'-nucleoside
Text: as §4

CEM (T cell line) = experiment: cells; details: Homo sapiens
Text: (§6) Of the other five cell lines, two were T cell lines, one called CEM and the other Molt-4, and the remaining three were monocyte-like cell lines, designated THP-1, U937 and HL-60, respectively.

SB (B cell line) = experiment: cells; details: Homo sapiens
Experimental: as §5

[6] = system: THP-1 (monocyte-like cell line); experiment: cells; details: Homo sapiens
Text: as §6

[7] = system: HL-60 (monocyte-like cell line); experiment: cells; details: Homo sapiens
Text: as §6

[8] = system: delayed-type hypersensitivity; experiment: Oral and IP effects on delayed-type hypersensitivity (DTH) to ovalbumin (Example 5, first study); assay type: in vivo, guinea pig; details: for inhibition of swelling compared to saline control: 24 and 48 hours after ovalbumin challenge; for effectiveness when given orally: without the protection of an enteric coating (2-CdA), preliminary in vivo studies
Experimental: (§1) Delayed-type hypersensitivity (DTH) is a cell-mediated immune response that typically takes longer than 12 hours to develop. In the guinea pig, a DTH reaction to an antigen can be established by first immunizing the animal with the antigen in an adjuvant such as Freund's complete adjuvant. Subsequent intradermal injection of the antigen causes no change for at least 10 hours, after which there is a gradual increase in erythema and swelling in response to antigen injection. This response peaks about at about 24 hours after challenge, then gradually subsides.
(§2) Histologically, the inflammatory response is characterized by intense inundation of the site with mononuclear cells, of which about half are lymphocytes and the other half monocytes. DTH is therefore an indicator of a monocyte-mediated immune reaction.
In one study, guinea pigs were sensitized to ovalbumin in adjuvant. […] The animals were then injected with ovalbumin intradermally to elicit the DTH response. The mean area of the swelling size was measured for each animal (nine or ten animals were treated for each protocol).

[9] = system: Peripheral blood lymphocytes; experiment: cells; details: Homo sapiens, Lymphocyte, 120 h, read-out: ID50
Text: as §4

Molt-4 (T cell line) = experiment: cells; details: Homo sapiens
Text: as §6

[10] = system: CEM, Increased 5'-nucleoside; experiment: cells; details: Homo sapiens, 120 h, read-out: ID50
Text: as §4

[11] = system: CEM, deoxyeytidine kinase deficient; experiment: cells; details: Homo sapiens, 120 h, read-out: ID50
Text: as §4

[12] = system: Peripheral blood lymphocytes
Text: as §4

[13] = system: DHL9, Increased ribonucleotide reduction
Text: as §4

Monocytes [14] = system: Monocytes
Text: as §4

[15] = system: U937 (monocyte-like cell line); experiment: cells; details: Homo sapiens, U-937
Text: as §6

CEM, wild type [16] = experiment: cells; details: Homo sapiens, 120 h, read-out: ID50
Text: as §4

CEM, wild type [17] = system: CEM, wild type
Text: as §4

neutrophils = details: chronic lymphocytic leukemia; serum levels less than 10 nM; in most cases; cited from earlier work
granulocytes [18] = details: hairy cell leukemia, cited from earlier work
CML in blast crisis = details: Phase I, cited from earlier work
[19] = system: delayed-type hypersensitivity; experiment: Effects of different dosages of 2-CdA on DTH to ovalbumin (Example 5, second study); assay type: in vivo, guinea pig; details: for inhibition of swelling compared to saline control: 24 and 48 hours post-challenge, p <0.01 by Student's t-test
Experimental: as §1, §2
Three days after treatment, the animals were challenged with ovalbumin intradermally. The areas of the skin lesions were measured at 6, 24, and 48 hours after challenge.

[20] = system: Mature BFU-E (mBFU-E) cells; details: read-out: IC50 (concentration required to inhibit 50 percent of growth); cited from earlier work
[21] = system: colony forming unit-erythroid (CFU-E) cells; details: read-out: IC50 (concentration required to inhibit 50 percent of growth); cited from earlier work
[22] = system: total circulating peripheral blood granulocytes; experiment: Effect of 2-CdA on total circulating peripheral blood granulocytes in a patient with CML (Example 2); assay type: in vivo, human
Experimental: (§3) Each course was repeated every 28 days until the maximum hematological remission response of the treatment was achieved. The median age of the patients was 60 years, with a range of 52 to 75 years. There were 3 males and 2 females. A median of 2 courses of treatment was administered, with a range of 1 to 4 courses.

CFU-GM cells = details: 100 nM; cited from earlier work
granulocytes [23] = experiment: Effects of 2-CdA on granulocyte counts in two non-CML (multiple sclerosis) patients (Example 3); assay type: in vivo, human
Text: Those results are illustrated and discussed hereinafter in Example 3.
Granulocyte counts were obtained from two patients who were receiving 2-CdA in the treatment of a non-leukemic disease, multiple sclerosis. These patients therefore had normal granulocytes.

[24] = system: Primitive burst-forming unit-erythroid (pBFU-E) cells; details: read-out: IC50 (concentration required to inhibit 50 percent of growth); cited from earlier work
[25] = system: chronic myelogenous leukemia; experiment: Hematological remission in patients with stable phase CML treated with 2-CdA (Example 1); assay type: in vivo, human
Experimental: as §3
The median follow-up was 3.2 months, with a range from 1.0 to 5.7 months.

[26] = system: Colony forming unit-granulocyte macrophage (CFU-GM) cells; details: read-out: IC50 (concentration required to inhibit 50 percent of growth); cited from earlier work
[27] = 1 mg/kg, intraperitoneal, p <0.01 by Student's t-test

Compound: α-interferon
- bone marrow cells with the translocation [1]: sometimes loses the clone with the translocation

Compound: Nc1ncnc2c1ncn2[C@@H]1O[C@H](CO)C[C@H]1F [2'-fluoro-2',3'-dideoxyribose]
- stability [2]: stable

Compound: Nc1nc(Cl)nc2c1ncn2[C@@H]1O[C@H](CO)[C@@H](O)[C@@H]1F [CAFdA, 2-chloro-9,1'-beta-2'-deoxy-2'-fluoro-D-arabinofuranosyladenine]
- IC50 [3]: 6000 nM
- IC50 (Monocytes [4]): 47 nM
- viability at 0.26 µM (K562 (myeloid cell line)): 40%
- CAFdA/2-CdA (ID50 ratio) [5]: 2.1
- viability at 0.05 µM (CEM (T cell line)): ≤ 60%
- viability at 0.06 µM (CEM (T cell line)): < 20%
- viability at 0.13 µM (CEM (T cell line)): < 10%
- viability at 0.26 µM (SB (B cell line)): 90%
- viability at 0.05 µM [6]: ≤ 60%
- viability at 0.06 µM [6]: < 20%
- viability at 0.13 µM [6]: < 10%
- viability at 0.05 µM [7]: ≤ 60%
- viability at 0.06 µM [7]: < 20%
- viability at 0.13 µM [7]: < 10%
- inhibition of swelling compared to saline control [8, 27]: significant inhibition of swelling
- inhibition of swelling compared to saline control ([8]; 1 mg/kg, oral, p <0.01 by Student's t-test): significant inhibition of swelling
- effectiveness when given orally ([8]; oral): effective
- IC50 [9]: 18 nM
- viability at 0.06 µM (Molt-4 (T cell line)): < 20%
- viability at 0.13 µM (Molt-4 (T cell line)): < 10%
- IC50 [10]: 126 nM
- IC50 [11]: 716000 nM
- CAFdA/2-CdA (ID50 ratio) [12]: 1.9
- CAFdA/2-CdA (ID50 ratio) [13]: 15.
- CAFdA/2-CdA (ID50 ratio) (Monocytes [14]): 2.1
- viability at 0.06 µM [15]: < 20%
- viability at 0.13 µM [15]: < 10%
- IC50 (CEM, wild type [16]): 67 nM
- CAFdA/2-CdA (ID50 ratio) (CEM, wild type [17]): 3.1

Compound: CS(=O)(=O)OCCCCOS(C)(=O)=O [busulfan]
- serious complication ("busulfan lung") ([1]; CML treatment): bronchopulmonary dysplasia with pulmonary fibrosis
- bone marrow cells with the translocation [1]: still contains a predominance of cells with the translocation

Compound: Nc1nc(Cl)nc2c1ncn2[C@H]1C[C@H](O)[C@@H](CO)O1 [2-CdA, 2-chloro-2'-deoxyadenosine]
- IC50 [3]: 4000 nM
- IC50 (Monocytes [4]): 22 nM
- neutrophil count (neutrophils): increase in neutrophil count
- neutropenia (granulocytes [18]): transient neutropenia
- granulocyte counts (granulocytes [18]; transient): under 500 per microliter
- detectable tumor (CML in blast crisis; another of two patients): loss of detectable tumor in another patient
- blast count (CML in blast crisis; one of two patients): decrease in blast count in one patient
- inhibition of swelling compared to saline control ([19]; 0.1 mg/kg): effective at inhibiting swelling
- inhibition of swelling compared to saline control ([19]; 1 mg/kg): effective at inhibiting swelling
- areas of swelling, 0.1 vs 1.0 mg/kg ([19]; 0.1 and 1.0 mg/kg): substantially the same
- areas of swelling compared to dexamethasone-treated animals ([19]; 0.1 and 1.0 mg/kg 2-CdA vs dexamethasone 5 mg/kg): slightly less than the value obtained with dexamethasone
- IC50 [20]: 38 nM
- IC50 [21]: 56 nM
- inhibition of swelling compared to control animals [8, 27]: significant inhibition of swelling
- effect on DTH swelling, oral route ([8]; 1 mg/kg, oral, without enteric coating): ineffective
- effectiveness when given orally ([8]; oral): ineffective
- IC50 [9]: 15 nM
- granulocyte count ([22]; second course, day 5): 27,724 /μl
- decrease from the granulocyte count at day zero ([22]; second course, day 13): > 99%
- granulocyte count ([22]; second course, day 13): 210 µL⁻¹
- granulocyte count ([22]; second course, day 17): 690 µL⁻¹
- granulocyte count ([22]; second course, day zero (start of therapy)): 34,831 /μl
- granulocyte count ([22]; third course, day 5, unit not given): 5,676 /μl
- decrease from the initial granulocyte level ([22]; third course, day 14): approximately 98%
- granulocyte count ([22]; third course, day 14, unit not given): 270 µL⁻¹
- lower than the initial granulocyte count ([22]; third course, day 17): 95%
- granulocyte count ([22]; third course, day 17, unit not given): 525 µL⁻¹
- granulocyte count ([22]; third course, day zero, unit not given): 11,060 /μl
- IC50 [10]: 60 nM
- IC50 [11]: 716000 nM
- reduction of CFU-GM growth (CFU-GM cells): 60%
- granulocyte counts after several courses (granulocytes [23]; multiple sclerosis patients, about 0.1 mg/kg/day, seven day continuous infusion): substantially unchanged
- effect on the granulocyte count (granulocytes [23]; two multiple sclerosis patients): did not affect the granulocyte count
- IC50 [24]: 19 nM
- toxicity attributable to 2-CdA ([25]; 0.1 mg/kg per day continuous i.v. infusion for 7 days, 1 to 4 courses): No toxicity attributable to 2-CdA was encountered
- hematological remission upon follow-up, Patient 4 ([25]; 1 course, prior hydroxyurea and α-interferon, follow-up 1.5 months): complete hematological remission
- hematological remission upon follow-up, Patient 5 ([25]; 2 courses, prior hydroxyurea, follow-up 1.0 months): complete hematological remission
- hematological remission upon follow-up, Patient 2 ([25]; 2 courses, prior hydroxyurea, follow-up 3.0 months): complete hematological remission
- hematological remission upon follow-up, Patient 3 ([25]; 3 courses, prior hydroxyurea and α-interferon, follow-up 3.2 months): complete hematological remission
- hematological remission upon follow-up, Patient 1 ([25]; 4 courses, prior hydroxyurea, follow-up 5.7 months): complete hematological remission
- complete hematological remissions (normalization of peripheral leukocyte counts, platelet counts, and resolution of splenomegaly) ([25]; 5 patients, 0.1 mg/kg per day continuous i.v. infusion for 7 days, repeated every 28 days, median 2 courses): All five patients obtained complete hematological remissions
- median follow-up (all patients continuing in hematologic remission) ([25]; 5 patients, range 1.0 to 5.7 months): 3.2 months
- Philadelphia chromosome at follow-up ([25]; all patients): persistence of the Philadelphia chromosome
- hematologic remission at follow-up, all patients ([25]; median follow-up 3.2 months): All patients continue to be in hematologic remission
- IC50 (CEM, wild type [16]): 21 nM
- IC50 [26]: 16 nM

Compound: C[C@@H]1C[C@H]2[C@@H]3CCC4=CC(=O)C=C[C@]4(C)[C@@]3(F)[C@@H](O)C[C@]2(C)[C@@]1(O)C(=O)CO [dexamethasone, reference compound]
- inhibition of swelling compared to saline control ([19]; 5 mg/kg): effective at inhibiting swelling
- inhibition of swelling compared to saline control ([8]; 5 mg/kg, intraperitoneal, p <0.01 by Student's t-test): significant inhibition of swelling
- inhibition of swelling compared to saline control ([8]; 5 mg/kg, oral, p <0.01 by Student's t-test): significant inhibition of swelling

Compound: Nc1ncnc2c1ncn2[C@@H]1O[C@H](CO)C[C@@H]1F [2'-fluoro-2',3'-dideoxyarabinose]
- stability [2]: stable

Compound: NC(=O)NO [hydroxyurea]
- bone marrow cells with the translocation [1]: still contains a predominance of cells with the translocation

Reference: US5401724A, “Therapeutic treatment of chronic myelogenous leukemia by administration of 2-chloro-2'-deoxy adenosine” (priority 1994, dated 1995)
